Literature values, collected in patent publication US20120214870A1, “METHODS FOR DIAGNOSIS AND TREATMENT OF CHRONIC FATIGUE SYNDROME” (UNIVERSITY OF SOUTH AUSTRALIA, priority 2009, published 2012).
Entries after “also recorded” stand apart in the source; their conditions may differ.

Assays:
CPT-I = details: Yoon et al., 2003; Amengual et al., 2008

CC(=O)O[C@H](CC(=O)[O-])C[N+](C)(C)C [C2, acetyl-L-carnitine]
mental fatigue and attention concentration (CFS patients; supplementation (Vermeulen & Scholte, 2004; Malaguarnera et al. 2008)): significant improvements

CC1=C(/C=C/C(C)=C/C=C/C(C)=C/C(=O)O)C(C)(C)CCC1 [all-trans retinoic acid, reference compound]
CPT-I expression or activity (CPT-I): upregulate

C[N+](C)(C)C[C@H](O)CC(=O)[O-] [LC, L-carnitine]
fatigue severity in CFS patients (CFS patients; after 2 months of supplementation (Plioplys and Plioplys, 1997)): significantly reduce
CPT-I expression or activity (CPT-I): increase; also recorded: upregulate

CCC(=O)O[C@H](CC(=O)[O-])C[N+](C)(C)C [C3, propionyl-L-carnitine]
general and physical fatigue (CFS patients; administration (Vermeulen & Scholte, 2004)): significant improvements
